Results on 14 compounds are retold here after US8513418B2, “Substituted bicyclic methyl amine derivatives as sphingosine-1 phosphate receptors modulators” (Allergan, Inc., priority 2011, dated 2013).

For the first assay, the target named is T1, human S1P1 receptor (Homo sapiens, UniProt P21453).
T1 construct: expressed in transfected cells; membranes of cells stably expressing the receptor
T1 sequence (P21453 whole entry): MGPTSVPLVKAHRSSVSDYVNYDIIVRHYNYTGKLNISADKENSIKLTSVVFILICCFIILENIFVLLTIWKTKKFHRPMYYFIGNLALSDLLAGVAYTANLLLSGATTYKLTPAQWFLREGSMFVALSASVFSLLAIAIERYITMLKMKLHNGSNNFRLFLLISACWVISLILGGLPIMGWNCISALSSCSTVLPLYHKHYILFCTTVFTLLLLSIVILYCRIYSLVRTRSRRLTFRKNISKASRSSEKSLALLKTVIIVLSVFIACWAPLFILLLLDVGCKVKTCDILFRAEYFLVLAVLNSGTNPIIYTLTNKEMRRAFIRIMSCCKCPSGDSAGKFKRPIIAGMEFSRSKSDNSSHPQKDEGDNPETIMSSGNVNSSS
Kind of assay: GTP γ35S binding assay for S1P1 activity. Particulars: membranes of cells stably expressing the S1P1 receptor. The format is biochemical. As for the experimental part: Novel compounds were synthesized and tested for S1P1 activity using the GTP γ^35S binding assay. These compounds may be assessed for their ability to activate or block activation of the human S1P1 receptor in cells stably expressing the S1P1 receptor. GTP γ^35S binding was measured in the medium containing (mM) HEPES 25, pH 7.4, MgCl2 10, NaCl 100, dithitothreitol 0.5, digitonin 0.003%, 0.2 nM GTP γ^35S, and 5 μg membrane protein in a volume of 150 μl. Test compounds were included in the concentration range from 0.08 to 5,000 nM unless indicated otherwise. Membranes were incubated with 100 μM 5′-adenylylimmidodiphosphate for 30 min, and subsequently with 10 μM GDP for 10 min on ice. Drug solutions and membrane were mixed, and then reactions were initiated by adding GTP γ^35S and continued for 30 min at 25° C. Reaction mixtures were filtered over Whatman GF/B filters under vacuum, and washed three times with 3 mL of ice-cold buffer (HEPES 25, pH7.4, MgCl2 10 and NaCl 100). Filters were dried and mixed with scintillant, and counted for ^35S activity using a 8-counter. Agonist-induced GTP γ^35S binding was obtained by subtracting that in the absence of agonist. Binding data were analyzed using a non-linear regression method. In case of antagonist assay, the reaction mixture contained 10 nM […] in the presence of test antagonist at concentrations ranging from 0.08 to 5000 nM.
Activity potency: S1P1 receptor from GTP γ^35S: nM, (EC50).
Consider `CCCCCCCCCCc1ccc(CNCCCP(=O)(O)O)c2ncccc12` [Compound 1, (3-{[(5-decylquinolin-8-yl)methyl]amino}propyl)phosphonic acid], for which the EC50 – broadly, the concentration at which the effect is half-maximal – came to 1.53 nM. Same read-out and setting: the result for `CCCCCCCCC#Cc1ccc(CNCCCP(=O)(O)O)c2ncccc12` [Compound 2, (3-{[(5-dec-1-yn-1-ylquinolin-8-yl)methyl]amino}propyl)phosphonic acid] reads 3.39 nM; that for `O=P(O)(O)CCCNCc1ccc(C#CCCCCCc2ccccc2)c2cccnc12` [Compound 3, [3-({[5-(7-phenylhept-1-yn-1-yl)quinolin-8-yl]methyl}amino)propyl]phosphonic acid], 94 nM; that for `O=P(O)(O)CCCNCc1ccc(C#CCCCCc2ccccc2)c2cccnc12` [Compound 4, [3-({[5-(6-phenylhex-1-yn-1-yl)quinolin-8-yl]methyl}amino)propyl]phosphonic acid], 204 nM.

The compound `O=P(O)(O)CCCNCc1ccc(CCCCCCCc2ccccc2)c2cccnc12` [Compound 5, [3-({[5-(7-phenylheptyl)quinolin-8-yl]methyl}amino)propyl]phosphonic acid] registered an EC50 of 173 nM. The same measure, in the same setting: the result for `O=P(O)(O)CCCNCc1ccc(CCCCCCc2ccccc2)c2cccnc12` [Compound 7, [3-({[5-(6-phenylhexyl)quinolin-8-yl]methyl}amino)propyl]phosphonic acid] reads 5.45 nM. The compound `O=P(O)(O)CCCNCc1ccc(C#CCCCc2ccccc2)c2cccnc12` [Compound 8, [3-({[5-(5-phenylpent-1-yn-1-yl)quinolin-8-yl]methyl}amino)propyl]phosphonic acid] registered a half-maximal effective concentration (EC50) of 543 nM. On the same count and under the same terms, the figure for `O=P(O)(O)OCCNCc1ccc(CCCCCCc2ccccc2)c2cccnc12` [Compound 11, 2-({[5-(6-phenylhexyl)quinolin-8-yl]methyl}amino)ethyl dihydrogen phosphate] is 2.19 nM; for `COc1cccc(CCCCC#Cc2ccc(CNCCCP(=O)(O)O)c3ncccc23)c1` [Compound 12, {3-[({5-[6-(3-methoxyphenyl)hex-1-yn-1-yl]quinolin-8-yl}methyl)amino]propyl}phosphonic acid] it is 18.3 nM.

Consider `COc1cccc(CCCCCCc2ccc(CNCCCP(=O)(O)O)c3ncccc23)c1` [Compound 13, {3-[({5-[6-(3-methoxyphenyl)hexyl]quinolin-8-yl}methyl)amino]propyl}phosphonic acid], for which the midpoint of the response, the EC50, lay at 7.68 nM. In turn, `CCCCCCCC/C=C/c1ccc(CNCCCP(=O)(O)O)c2ccccc12` [Compound 15, {3-[({4-[(1E)-dec-1-en-1-yl]-1-naphthyl}methyl)amino]propyl}phosphonic acid] had a half-maximal effective concentration (EC50) of 138 nM. On the same count and under the same terms, the figure for `O=P(O)(O)CCCNCc1ccc(C#CCCCCc2ccccc2)c2ccccc12` [Compound 16, [3-({[4-(6-phenylhex-1-yn-1-yl)-1-naphthyl]methyl}amino)propyl]phosphonic acid] is 4.88 nM.

`O=P(O)(O)OCCNCc1ccc(CCCCCCc2ccccc2)c2ccccc12` [Compound 18, 2-({[4-(6-phenylhexyl)-1-naphthyl]methyl}amino)ethyl dihydrogen phosphate] registered a concentration for a half-maximal effect (EC50) of 55.5 nM. For `O=P(O)(O)CCCNCc1ccc(CCCCCCc2ccccc2)c2ccccc12` [Compound 19, [3-({[4-(6-phenylhexyl)-1-naphthyl]methyl}amino)propyl]phosphonic acid], the 50% effective concentration (EC50) was found to be 5.59 nM.

The subject of the next assay is female C57BL6 mice. Kind of assay: Lymphopenia assay in mice (in vivo blood lymphocyte depletion). The following applies: after 24 hours; after dosing; FIG. 1 legend. As for the experimental part: Test drugs are prepared in a solution containing 3% (w/v) 2-hydroxy propyl β-cyclodextrin (HPBCD) and 1% DMSO to a final concentration of 1 mg/ml, and subcutaneously injected to female C57BL6 mice (CHARLES RIVERS) weighing 20-25 g at the dose of 10 mg/Kg. Blood samples are obtained by puncturing the submandibular skin with a Goldenrod animal lancet at 5, 24, 48, 72, and 96 hrs post drug application. Blood is collected into microvettes (SARSTEDT) containing EDTA tripotassium salt. Lymphocytes in blood samples are counted using a HEMAVET Multispecies Hematology System, HEMAVET HV950FS (Drew Scientific Inc.). (Hale, J. et al Bioorg. & Med. Chem. Lett. 14 (2004) 3351).
A lymphopenia assay in mice, as previously described, was employed to measure the in vivo blood lymphocyte depletion after dosing Compound 5 (FIG. 1). These S1P agonists (or modulators) are useful for S1P-related diseases, and exemplified by the lymphopenia in vivo response. In general, test compounds were prepared in a solution containing 3% (w/v) 2-hydroxy propyl β-cyclodextrin (HPBCD) and 1% DMSO to a final concentration of 1 mg/ml, and subcutaneously injected to female C57BL6 mice (CHARLES RIVERS) weighing 20-25 g at the dose of 10 mg/Kg or 2 mg/Kg. […] Lymphocytes in blood samples were counted using a HEMAVET Multispecies Hematology System, HEMAVET HV950FS (Drew Scientific Inc.).
In the case of `O=P(O)(O)CCCNCc1ccc(CCCCCCCc2ccccc2)c2cccnc12` [Compound 5, [3-({[5-(7-phenylheptyl)quinolin-8-yl]methyl}amino)propyl]phosphonic acid], the lymphocyte count entry is given as “lowered lymphocyte count”.

Staying with this assay, now noted: after 24 hours; subcutaneously injected, 10 mg/Kg or 2 mg/Kg; FIG. 1.
Consider `O=P(O)(O)CCCNCc1ccc(CCCCCCCc2ccccc2)c2cccnc12` [Compound 5, [3-({[5-(7-phenylheptyl)quinolin-8-yl]methyl}amino)propyl]phosphonic acid], for which the number of lymphocytes is recorded as < 1 10^3/μL blood.
